The source of these data is US20160257697A1, “THIOPHENE-SUBSTITUTED TETRACYCLIC COMPOUNDS AND METHODS OFUSE THEREOF FOR THE TREATMENT OF VIRAL DISEASES” (priority 2013, published 2016).

Where two headings read alike, the source gives them in different places.

What all share (test): microbe, parasite or virus in culture
Common to all, as to assay type: cell-based, Hepatitis C virus (HCV)

Assay [1] deals with HCV replicon 1A. Conditions: HCV replicon 1A, Replicon Assay A. In a few lines: (§1)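 Cells seeded 2000/well + compound; 0.5% DMSO, 5% FBS; harvest day 3, lyse. Multiplex TaqMan RT-PCR for replicon (Neo probe) and cyclophilin RNA; amounts from Ct vs log(ng) linear regression of replicon total RNA standards.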
The test system of assay [2] is HCV replicon 1AY93H. The settings on record: Replicon Assay A. The essentials: as §1
Background: Replicon systems follow genome replication, usually without infectious particles.

Assay [3] relates to HCV replicon 2B. The settings on record: Replicon Assay A. The essentials: as §1
[4] abbreviates: read-out: 1A Y93H IC50, HCV replicon 1A Y93H.
Setting [5] is: read-out: 2B IC50, HCV replicon 2B.
The mark [6] stands for this setting: Hepatitis C virus, read-out: 1A Y93H IC50, HCV replicon 1A Y93H.
The mark [7] stands for this setting: Hepatitis C virus, read-out: 2B IC50, HCV replicon 2B.

A word on the IC50: it is the concentration needed to halve the response being measured. `COC(=O)N[C@H](C(=O)N1CCC[C@H]1c1ncc(-c2cc(F)c3c(c2)OC(c2cc(C)c(C)s2)n2c-3cc3cc(-c4cnc([C@@H]5C[C@@H](F)CN5C(=O)[C@@H](NC(=O)OC)C(C)C)[nH]4)ccc32)[nH]1)C(C)C` (single isomer, unassigned) [Compound 515]: the IC50 in assay [1] was determined as 0.0103 nM; in assay [2] (setting [4]) it was 6.54 nM; in assay [3] (setting [5]), 18.7 nM.

`COC(=O)N[C@H](C(=O)N1CCC[C@H]1c1ncc(-c2cc(F)c3c(c2)OC(c2cc(C)c(C)s2)n2c-3cc3cc(-c4cnc([C@@H]5C[C@@H](F)CN5C(=O)[C@@H](NC(=O)OC)C(C)C)[nH]4)ccc32)[nH]1)C(C)C` (single isomer, unassigned) [Compound 516]: the IC50 in assay [1] is 0.00191 nM; in assay [2] (setting [4]), 0.0114 nM; in assay [3] (setting [5]), 5.2 nM.

As for `COC(=O)N[C@H](C(=O)N1CCC[C@H]1c1ncc(-c2cc(F)c3c(c2)OC(c2ccc(CC(C)C)s2)n2c-3cc3cc(-c4cnc([C@@H]5CCCN5C(=O)[C@@H](NC(=O)OC)C(C)C)[nH]4)ccc32)[nH]1)C(C)C` (single isomer, unassigned) [Compound 521], the values for the IC50 in assay [1], in assay [2] (setting [4]) and in assay [3] (setting [5]) were 0.00652 nM, 0.695 nM and 3.49 nM, respectively.

For the compound `COC(=O)N[C@H](C(=O)N1CCC[C@H]1c1ncc(-c2cc(F)c3c(c2)OC(c2ccc(CC(C)C)s2)n2c-3cc3cc(-c4cnc([C@@H]5CCCN5C(=O)[C@@H](NC(=O)OC)C(C)C)[nH]4)ccc32)[nH]1)C(C)C` (single isomer, unassigned) [Compound 522], the IC50 worked out at 0.0239 nM in assay [1], 0.0776 nM in assay [2] (setting [4]) and 0.417 nM in assay [3] (setting [5]).

For `COC(=O)N[C@H](C(=O)N1CCC[C@H]1c1ncc(-c2cc(F)c3c(c2)OC(c2scc4c2OCCO4)n2c-3cc3cc(-c4cnc([C@@H]5CCCN5C(=O)[C@@H](NC(=O)OC)C(C)C)[nH]4)ccc32)[nH]1)C(C)C` (single isomer, unassigned) [Compound 523], the IC50 in assay [1] was found to be 0.0032 nM; in assay [2] (setting [6]), 11.7 nM; in assay [3] (setting [5]), 12.4 nM.

On to `COC(=O)N[C@H](C(=O)N1CCC[C@H]1c1ncc(-c2cc(F)c3c(c2)OC(c2scc4c2OCCO4)n2c-3cc3cc(-c4cnc([C@@H]5CCCN5C(=O)[C@@H](NC(=O)OC)C(C)C)[nH]4)ccc32)[nH]1)C(C)C` (single isomer, unassigned) [Compound 524], for which the IC50 in assay [1] came out at 0.00766 nM; in assay [2] (setting [4]), 14.5 nM; in assay [3] (setting [5]), 4.64 nM.

For the compound `COC(=O)N[C@H](C(=O)N1CCC[C@H]1c1ncc(-c2cc(F)c3c(c2)OC(c2scc4c2OCCO4)n2c-3cc3cc(-c4cnc([C@@H]5C[C@H](F)CN5C(=O)[C@@H](NC(=O)OC)C(C)C)[nH]4)ccc32)[nH]1)C(C)C` (single isomer, unassigned) [Compound 526], the IC50 was determined as 0.00776 nM in assay [1] (Hepatitis C virus), 4.79 nM in assay [2] (setting [6]) and 33.3 nM in assay [3] (setting [7]).

As for `COC(=O)N[C@H](C(=O)N1CCC[C@H]1c1ncc(-c2cc(F)c3c(c2)OC(c2scc4c2OCCO4)n2c-3cc3cc(-c4cnc([C@@H]5C[C@H](F)CN5C(=O)[C@@H](NC(=O)OC)C(C)C)[nH]4)ccc32)[nH]1)C(C)C` (single isomer, unassigned) [Compound 527], the concentration for half-maximal inhibition (IC50) in assay [1] came out at 0.0155 nM; in assay [2] (setting [4]), 3.06 nM; in assay [3] (setting [5]) it was 33.3 nM.

For the compound `COC(=O)N[C@H](C(=O)N1CCC[C@H]1c1ncc(-c2cc(F)c3c(c2)OC(c2ccc(C4CCCCC4)s2)n2c-3cc3cc(-c4cnc([C@@H]5CCCN5C(=O)[C@@H](NC(=O)OC)C(C)C)[nH]4)ccc32)[nH]1)C(C)C` (single isomer, unassigned) [Compound 530], the figures for the IC50 in assay [1], in assay [2] (setting [6]) and in assay [3] (setting [5]) were 0.0131 nM, 0.0499 nM and 0.488 nM, respectively.

As for `COCc1ccc(C2Oc3cc(-c4cnc([C@@H]5CCCN5C(=O)[C@@H](NC(=O)OC)C(C)C)[nH]4)cc(F)c3-c3cc4cc(-c5cnc([C@@H]6CCCN6C(=O)[C@@H](NC(=O)OC)[C@@H]6C[C@@H](C)O[C@@H](C)C6)[nH]5)ccc4n32)s1` (single isomer, unassigned) [Compound 533], the IC50 in assay [1] was 0.00373 nM; in assay [2] (setting [4]), 0.0913 nM; in assay [3] (setting [5]), 0.429 nM.

Consider `COCc1ccc(C2Oc3cc(-c4cnc([C@@H]5CCCN5C(=O)[C@@H](NC(=O)OC)C(C)C)[nH]4)cc(F)c3-c3cc4cc(-c5cnc([C@@H]6CCCN6C(=O)[C@@H](NC(=O)OC)[C@@H]6C[C@@H](C)O[C@@H](C)C6)[nH]5)ccc4n32)s1` (single isomer, unassigned) [Compound 535], for which the IC50 in assay [1] was determined as 0.00895 nM; in assay [2] (setting [4]), 0.0295 nM; in assay [3] (setting [5]), 0.0736 nM.

Turning to `COC(=O)NC(C(=O)N1CCC[C@H]1c1ncc(-c2ccc3c(c2)cc2n3C(c3ccc(C4CC4)s3)Oc3cc(-c4cnc([C@@H]5C[C@H]6C[C@H]6N5C(=O)[C@@H](NC(=O)OC)C(C)C)[nH]4)cc(F)c3-2)[nH]1)C1C[C@@H](C)O[C@@H](C)C1` (single isomer, unassigned) [Compound 537], the IC50 was determined as 0.00398 nM in assay [1], 0.114 nM in assay [2] (setting [4]) and 1.1 nM in assay [3] (setting [5]).

`COC(=O)N[C@H](C(=O)N1CCC[C@H]1c1ncc(-c2cc(C)c3c(c2)OC(c2cc4c(s2)CCC4)n2c-3cc3cc(-c4cnc([C@@H]5CCCN5C(=O)[C@@H](NC(=O)OC)C5CCOCC5)[nH]4)ccc32)[nH]1)C(C)C` (single isomer, unassigned) [Compound 540]: the IC50 in assay [1] (Hepatitis C virus) amounted to 0.00859 nM; in assay [2] (setting [6]) it was 2.14 nM; in assay [3] (setting [7]), 0.147 nM.

Regarding `CCc1ccc(C2Oc3cc(-c4cnc([C@@H]5CCCN5C(=O)[C@@H](NC(=O)OC)C(C)C)[nH]4)cc(C)c3-c3cc4cc(-c5cnc([C@@H]6CCCN6C(=O)C(NC(=O)OC)C6C[C@@H](C)O[C@@H](C)C6)[nH]5)ccc4n32)s1` (single isomer, unassigned) [Compound 544], the half-inhibitory concentration (IC50) worked out at 0.00833 nM in assay [1], 0.29 nM in assay [2] (setting [4]) and 0.0319 nM in assay [3] (setting [5]).

For the compound `CCc1ccc(C2Oc3cc(-c4cnc([C@@H]5CCCN5C(=O)[C@@H](NC(=O)OC)C(C)C)[nH]4)cc(C)c3-c3cc4cc(-c5cnc([C@@H]6CCCN6C(=O)C(NC(=O)OC)C6C[C@@H](C)O[C@H](C)C6)[nH]5)ccc4n32)s1` (single isomer, unassigned) [Compound 546], the results for the IC50 in assay [1], in assay [2] (setting [4]) and in assay [3] (setting [5]) were 0.0138 nM, 0.268 nM and 0.0542 nM, respectively.

Take `COC(=O)N[C@H](C(=O)N1CCC[C@H]1c1ncc(-c2cc(C)c3c(c2)OC(c2cc4c(s2)CCC4)n2c-3cc3cc(-c4cnc([C@@H]5CCCN5C(=O)[C@@H](NC(=O)OC)C5C[C@@H](C)O[C@@H](C)C5)[nH]4)ccc32)[nH]1)C(C)C` (single isomer, unassigned) [Compound 549]: the IC50 in assay [1] was 0.00715 nM; in assay [2] (setting [4]), 0.563 nM; in assay [3] (setting [5]) it was 0.169 nM.

Take `COC(=O)N[C@H](C(=O)N1CCC[C@H]1c1ncc(-c2cc(C)c3c(c2)OC(c2cc4c(s2)CCC4)n2c-3cc3cc(-c4cnc([C@@H]5CCCN5C(=O)[C@@H](NC(=O)OC)C5C[C@@H](C)O[C@@H](C)C5)[nH]4)ccc32)[nH]1)C(C)C` (single isomer, unassigned) [Compound 550]: the IC50 worked out at 0.03 nM in assay [1], 0.154 nM in assay [2] (setting [4]) and 0.0435 nM in assay [3] (setting [5]).

Regarding `COC(=O)N[C@H](C(=O)N1CCC[C@H]1c1ncc(-c2cc(F)c3c(c2)OC(c2cc4c(s2)CCC4)n2c-3cc3cc(-c4cnc([C@@H]5C[C@H]6C[C@H]6N5C(=O)[C@@H](NC(=O)OC)C5C[C@@H](C)O[C@@H](C)C5)[nH]4)ccc32)[nH]1)C(C)C` (single isomer, unassigned) [Compound 552], the IC50 in assay [1] is 0.00978 nM; in assay [2] (setting [4]) it was 0.839 nM; in assay [3] (setting [5]) it was 0.409 nM.

Take `COC(=O)N[C@H](C(=O)N1C2CC2C[C@H]1c1ncc(-c2cc(F)c3c(c2)OC(c2ccc(C4CC4)s2)n2c-3cc3cc(-c4cnc([C@@H]5CCCN5C(=O)[C@@H](NC(=O)OC)C5C[C@@H](C)O[C@@H](C)C5)[nH]4)ccc32)[nH]1)C(C)C` (single isomer, unassigned) [Compound 555]: the values for the IC50 in assay [1], in assay [2] (setting [4]) and in assay [3] (setting [5]) were 0.00239 nM, 0.105 nM and 0.197 nM, respectively.

With `COC(=O)N[C@H](C(=O)N1C2CC2C[C@H]1c1ncc(-c2cc(F)c3c(c2)OC(c2ccc(C4CC4)s2)n2c-3cc3cc(-c4cnc([C@@H]5CCCN5C(=O)[C@@H](NC(=O)OC)C5C[C@@H](C)O[C@@H](C)C5)[nH]4)ccc32)[nH]1)C(C)C` (single isomer, unassigned) [Compound 556], the IC50 in assay [1] worked out at 0.0512 nM; in assay [2] (setting [4]), 0.251 nM; in assay [3] (setting [5]), 0.976 nM.

As to `CCc1ccc(C2Oc3cc(-c4cnc([C@@H]5CCCN5C(=O)[C@@H](NC(=O)OC)C(C)C)[nH]4)ccc3-c3c(F)c4cc(-c5cnc([C@@H]6CCCN6C(=O)[C@@H](NC(=O)OC)C(C)C)[nH]5)ccc4n32)s1` (single isomer, unassigned) [Compound 603], the IC50 came out at 0.0032 nM in assay [1], 0.183 nM in assay [2] (setting [4]) and 0.496 nM in assay [3] (setting [5]).

With `COC(=O)N[C@H](C(=O)N1CCC[C@H]1c1ncc(-c2ccc3c(c2)OC(c2cc4ccccc4s2)n2c-3cc3cc(-c4cnc([C@@H]5C[C@H]6C[C@H]6N5C(=O)[C@@H](NC(=O)OC)C(C)C)[nH]4)ccc32)[nH]1)C(C)C` (single isomer, unassigned) [Compound 608], the IC50 worked out at 0.0035 nM in assay [1], 0.0529 nM in assay [2] (setting [4]) and 0.031 nM in assay [3] (setting [5]).

Turning to `COC(=O)N[C@H](C(=O)N1CCC[C@H]1c1ncc(-c2ccc3c(c2)OC(c2cc4ccccc4s2)n2c-3cc3cc(-c4cnc([C@@H]5C[C@H]6C[C@H]6N5C(=O)[C@@H](NC(=O)OC)C(C)C)[nH]4)ccc32)[nH]1)C(C)C` (single isomer, unassigned) [Compound 609], the IC50 in assay [1] is 0.0074 nM; in assay [2] (setting [4]), 18 nM; in assay [3] (setting [5]), 0.995 nM.
